Reference: PMC3566133, “Molecular Analysis of the Prostacyclin Receptor’s Interaction with the PDZ1 Domain of Its Adaptor Protein PDZK1” (PLoS ONE, 2013)
Where a SMILES comes first, the peptide text is derived from it.

Experiments:
[1] = molecular target: PDZ1 of PDZK1; details: cited from earlier work
Text: PDZK1 is a multi-PDZ domain-containing adaptor protein known to play a role in the expression, localization and function of several cell surface receptors and ion channels. One of its molecular interactants is the prostacyclin receptor (IP), whose interaction with PDZK1 was recently described. […] These interactions involve a Class I type of binding typically seen for protein interactants with carbox ... || We recently solved the structures of the interactions between the HDL receptor SR-BI with the first and with the third PDZ domains of PDZK1 by X-ray crystallography, [32]. […] The crystal structure described herein, analyzing the interaction between the carboxy-terminus of the I ...

[2] = system: third PDZ domain (PDZ3) of PDZK1; details: cited from earlier work
Text: We recently solved the structures of the interactions between the HDL receptor SR-BI with the first and with the third PDZ domains of PDZK1 by X-ray crystallography, [32]. […] The crystal structure described herein, analyzing the interaction between the carboxy-terminus of the I ...

[3] = molecular target: T1, PDZ1 domain of PDZK1 (Mus musculus, UniProt Q9JIL4); assay: Isothermal titration calorimetry (ITC), binding to recombinant PDZ1 domain of PDZK1; details: VP-ITC microcalorimeter, 1.0 mM peptide titrated into 0.03 mM PDZ1, 150 mM NaCl, 25 mM Tris-pH 8.0, 0.5 mM TCEP, 20°C, triplicate, ORIGIN 7.0, read-out: Kd (binding affinity) to PDZ1
T1 construct: Recombinant wild-type PDZ1 domain (0.03 mM in 150 mM NaCl); made in house
T1 sequence (Q9JIL4 9-90 limits assumed): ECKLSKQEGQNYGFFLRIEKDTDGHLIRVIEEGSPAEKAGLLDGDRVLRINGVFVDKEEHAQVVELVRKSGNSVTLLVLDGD
Description: Expression and purification of recombinant proteins corresponding to PDZ1 domain 1(PDZ1) of PDZK1 and to full length PDZK1 has been described previously. Binding of synthetic peptides based on the C-terminus of the IP (Fig. 1) was measured using a VP-ITC microcalorimeter (GE Healthcare). Three individual peptides were used: Peptide 1 corresponded to the seven carboxy-terminal amino acids of mouse (m) IP, to which two N-terminal lysines (not part of the IP protein sequence) were added to increase peptide solubility (KK^411IAACSLC^417, ‘target peptide’); Peptide 2 consisted of an octapeptide corresponding to the carboxy-terminus of IP (K^407SEAIAAC^414) devoid of the 3 terminal amino acids (-aaX/-^415SLC^417) which would be removed by proteolytic cleavage following farnesylation. […] Titration curves were analyzed and Kd values determined using ORIGIN 7.0 software (Origin Lab) with baseline correction. […]
Figure 2 Isothermal titration calorimetric analysis of the binding of a C-terminal peptide from IP to the PDZ1 domain of PDZK1. […] Titration curves were analyzed and Kd values determined using ORIGIN 7.0 software. […]

[4] = molecular target: T2, PDZK1 residues 7-106 (PDZ1 domain 7-86 with interdomain residues 87-106), the PDZK1 portion of the PDZ1-IP … (mouse, UniProt Q9JIL4 7-106); assay: crystal structure; PDZ1-IP chimera at 1 mM, sitting drop vapor diffusion, 18°C, 0.1 M MES pH 6.5, 30% (w/v) PEG 300; 1.70 Å; the IP peptide of one molecule binds the PDZ1 of the adjacent molecule; details: both partners purified
T2 construct: PDZK1 residues 7-106: PDZ1 (7-86) and interdomain residues 87-106; numbering of the intact murine PDZK1; Stood in the crystal joined on one chain with m8 (the chimera m6, with Gly-Ser at its N-terminus); written apart for the pair PDZ1 with the IP peptide; also called PDZ1 portion of the structure; source: E. coli JM109, purified, as part of the PDZ1-IP chimera; not shown: GST, N-terminal, cleaved
T2 sequence (looked up): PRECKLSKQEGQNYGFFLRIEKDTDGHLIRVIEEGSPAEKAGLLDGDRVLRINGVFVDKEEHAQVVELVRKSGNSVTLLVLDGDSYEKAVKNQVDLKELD

[5] = molecular target: the molecule itself; assay: as above
[6] = molecular target: T3, recombinant full-length PDZK1 (mouse, UniProt Q9JIL4 1-519); assay: ITC; 1.0 mM peptide injected in 10 µl aliquots into 0.03 mM PDZ1 or full length PDZK1 in the cell; 150 mM NaCl, 25 mM Tris pH 8.0, 0.5 mM TCEP, 20°C; VP-ITC; details: both partners purified
T3 construct: PDZK1, full length, with PDZ1-PDZ4; source: recombinant, purified
T3 sequence (looked up): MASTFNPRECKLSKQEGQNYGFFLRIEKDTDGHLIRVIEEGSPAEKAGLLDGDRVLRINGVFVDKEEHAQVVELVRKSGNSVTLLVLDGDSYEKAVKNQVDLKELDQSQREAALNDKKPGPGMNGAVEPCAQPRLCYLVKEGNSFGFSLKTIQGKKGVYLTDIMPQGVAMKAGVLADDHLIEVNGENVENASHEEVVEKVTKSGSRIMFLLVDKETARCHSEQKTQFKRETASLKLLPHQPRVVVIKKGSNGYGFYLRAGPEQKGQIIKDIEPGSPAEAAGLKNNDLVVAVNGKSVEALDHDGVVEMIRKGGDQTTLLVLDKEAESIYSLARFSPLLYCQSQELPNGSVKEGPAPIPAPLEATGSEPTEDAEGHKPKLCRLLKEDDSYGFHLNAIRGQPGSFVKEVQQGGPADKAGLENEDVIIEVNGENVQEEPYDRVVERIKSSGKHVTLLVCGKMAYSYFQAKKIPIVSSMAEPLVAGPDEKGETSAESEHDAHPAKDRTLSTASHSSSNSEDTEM

[7] = molecular target: T4, recombinant protein corresponding to PDZ domain 1 (PDZ1) of PDZK1 (mouse); assay: as above
T4 sequence (Q9JIL4 whole entry, looked up): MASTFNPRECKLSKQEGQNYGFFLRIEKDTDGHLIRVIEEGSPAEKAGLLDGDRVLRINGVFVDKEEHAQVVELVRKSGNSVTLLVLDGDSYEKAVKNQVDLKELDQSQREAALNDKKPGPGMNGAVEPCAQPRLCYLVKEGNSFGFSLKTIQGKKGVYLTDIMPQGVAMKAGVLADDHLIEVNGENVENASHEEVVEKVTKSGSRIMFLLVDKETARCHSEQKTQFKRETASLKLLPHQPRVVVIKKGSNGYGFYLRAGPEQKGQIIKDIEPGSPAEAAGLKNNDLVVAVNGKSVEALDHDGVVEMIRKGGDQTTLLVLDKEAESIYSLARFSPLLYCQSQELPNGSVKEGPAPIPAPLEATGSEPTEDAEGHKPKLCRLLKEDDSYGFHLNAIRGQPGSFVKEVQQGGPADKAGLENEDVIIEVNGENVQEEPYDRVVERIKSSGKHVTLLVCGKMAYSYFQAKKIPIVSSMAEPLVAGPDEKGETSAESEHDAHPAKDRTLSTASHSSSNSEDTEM

-VLQEAKL [SR-BI, scavenger receptor class B, type I]
Kd ([1]; PDZ1 of PDZK1, read-out: Kd of SR-BI binding to PDZ1): 2.6 µM
Affinity of SR-BI/PDZ1 interaction [1]: high affinity
Affinity of SR-BI/PDZ3 interaction [2]: lower affinity

CC[C@H](C)[C@H](NC(=O)[C@H](CCCCN)NC(=O)[C@@H](N)CCCCN)C(=O)N[C@@H](C)C(=O)N[C@@H](C)C(=O)N[C@@H](CS)C(=O)N[C@@H](CO)C(=O)N[C@@H](CC(C)C)C(=O)N[C@@H](CS)C(=O)O [Peptide 1] (H-KKIAACSLC-OH)
Kd [3]: 8.2 µM

B1: seven carboxy-terminal residues of mouse IP (411IAACSLC417), the IP portion of the PDZ1-IP chimera (peptide)
peptide: IAACSLC
notes: prostacyclin receptor (IP), mouse, seven carboxy-terminal residues 411-417; also numbered -6 to 0 from the C-terminal residue; Stood in the crystal fused to the C-terminus of m7 (the chimera m6); also called IP target peptide; IP peptide; source: E. coli JM109, purified, as part of the PDZ1-IP chimera
binding result [4]: binds

B2: chimeric PDZ1-IP recombinant protein (residues 7-106 of PDZK1 fused to the seven carboxy-terminal amino acids of mouse IP) (other)
chain: GSPRECKLSKQEGQNYGFFLRIEKDTDGHLIRVIEEGSPAEKAGLLDGDRVLRINGVFVDKEEHAQVVELVRKSGNSVTLLVLDGDSYEKAVKNQVDLKELDIAACSLC
notes: Gly-Ser dipeptide from the cloning vector (pGEX-4T-3), left at the N-terminus after thrombin digestion; PDZK1 residues 7-106: PDZ1 (7-86) and interdomain residues 87-106; numbering of the intact murine PDZK1; prostacyclin receptor (IP), mouse, seven carboxy-terminal residues 411-417; In the structure the chain is numbered 7Pro to 113Cys; also called PDZ1-IP chimera; PDZ1-IP target peptide …
binding result [5]: binds

B3: Peptide 1 (KK411IAACSLC417), seven carboxy-terminal amino acids of mouse IP with two added N-terminal lysines (peptide)
peptide: KKIAACSLC
notes: prostacyclin receptor (IP), mouse, seven carboxy-terminal residues 411-417; also called target peptide; C-terminal nonapeptide from IP; source: synthetic peptide, HPLC purified (Tufts University Core Facility)
Kd [6]: 60.2 ± 14.2 µM
Kd [7]: 8.2 µM
